Test system: Japanese white rabbits
Assay: Ophthalmic disorder caused by 8-time-a-day instillation to white rabbits: observation of corneal staining spot
Format: in vivo, rabbit
Conditions: after 8th administration
Method: The test drugs, Compound A and Compound C, were each dissolved in the following base at a concentration of 0.125, 0.25, 0.5 and 1.0% and adjusted to pH 7 for use in this experiment. Japanese white rabbits (body weight about 2 kg) purchased from Japan Laboratory Animals, INC. were used. These animals were bred in a breeding chamber set to temperature 23±3° C., humidity 55±10% and fed on limited amount of 100 g a day of a solid feed (Labo R Stock, Nihon-Nosan Kogyo K.K.). They were allowed free access to tap water. Instillation: Using a micropipet, each test drug (100 μl) was instilled into the right eye of each animal 8 times at one hour intervals. Into the left eye was instilled a base in the same manner. Observation: anterior segment of the eye was macroscopically observed before instillation and 30 min after 2nd, 4th, 6th and 8th administrations, according to the macroscopic criteria for ocular lesions as shown in Table 1 (Naruyuki Fukui, […] no Rinshou 4, 277-289, 1970). In addition, corneal staining spot was observed before instillation and after 8th administration.

Row | Structure (SMILES) | observation of corneal staining spot (any concentration (0.125, 0.25, 0.5 and 1.0%)) | observation of corneal staining spot (0.125% instillation) | observation of corneal staining spot (0.25% instillation, corneal epithelium) | observation of corneal staining spot (0.5% instillation, corneal epithelium) | observation of corneal staining spot (1.0% instillation, corneal epithelium)
1 | CC(N)[C@H]1CC[C@H](C(=O)Nc2ccncc2)CC1.Cl.Cl.O (single isomer, unassigned; (+)) [Compound A, (+)-trans-4-(1-Aminoethyl)-1-(4-pyridylcarbamoyl)cyclohexane 2HCl 1H2O] | did not lead to abnormalities |  |  |  | 
2 | C[C@@H](N)c1ccc(C(=O)Nc2ccncc2)cc1.Cl.Cl [Compound C, (R)-(+)-N-(4-pyridyl)-4-(1-aminoethyl)benzamide 2HCl] |  | did not cause particular abnormality | abnormality in two eyes | abnormality in all eyes | abnormality in all eyes

From patent US6673812B1, “Preventives/remedies for glaucoma” (Senju Pharmaceutical Co., Ltd., priority 1998, dated 2004)
